# Reference: patent US9714244B2, “Substituted pyrido[4,3-d]pyrimidines as Wee-1 inhibitors” (ALMAC DISCOVERY LIMITED, priority 2013, dated 2017)
# Assays:
# [1] = molecular target: MAPKAPK2 (Homo sapiens (Human), UniProt P49137); assay: SelectScreen Kinase Profiling: MAPKAPK2; type: biochemical; conditions: 300-350 nM
# Source text: (§1) Table 2 below highlights the selectivity of a representative compound of the invention against a panel of 50 kinases (assessed using the Invitrogen SelectScreen® Kinase Profiling Service).
# [2] = molecular target: CHEK1 (CHK1) (Homo sapiens (Human), UniProt O14757); assay: SelectScreen Kinase Profiling: CHEK1; type: biochemical; conditions: 300-350 nM
# Source text: as §1
# [3] = molecular target: MAPK1 (ERK2) (Homo sapiens (Human), UniProt P28482); assay: SelectScreen Kinase Profiling: MAPK1; type: biochemical; conditions: 300-350 nM
# Sequence of MAPK1 (ERK2) (P28482 whole entry): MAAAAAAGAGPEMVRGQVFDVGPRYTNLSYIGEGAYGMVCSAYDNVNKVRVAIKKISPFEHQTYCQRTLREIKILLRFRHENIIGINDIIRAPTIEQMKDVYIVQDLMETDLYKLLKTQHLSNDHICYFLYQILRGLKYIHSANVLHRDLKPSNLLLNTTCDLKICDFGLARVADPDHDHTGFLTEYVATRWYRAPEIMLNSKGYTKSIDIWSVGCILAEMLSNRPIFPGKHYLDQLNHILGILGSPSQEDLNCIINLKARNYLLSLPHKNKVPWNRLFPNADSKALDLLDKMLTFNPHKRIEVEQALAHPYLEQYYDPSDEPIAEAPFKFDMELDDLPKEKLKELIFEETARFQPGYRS
# Source text: as §1
# [4] = molecular target: KIT (Homo sapiens (Human), UniProt P10721); assay: SelectScreen Kinase Profiling: KIT; type: biochemical; conditions: 300-350 nM
# Source text: as §1
# [5] = molecular target: JAK3 (Homo sapiens (Human), UniProt P52333); assay: SelectScreen Kinase Profiling: JAK3; type: biochemical; conditions: 300-350 nM
# Source text: as §1
# [6] = molecular target: KDR (VEGFR2) (Homo sapiens (Human), UniProt P35968); assay: SelectScreen Kinase Profiling: KDR; type: biochemical; conditions: 300-350 nM
# Source text: as §1
# [7] = molecular target: NEK1 (Homo sapiens (Human), UniProt Q96PY6); assay: SelectScreen Kinase Profiling: NEK1; type: biochemical; conditions: 300-350 nM
# Sequence of NEK1 (Q96PY6 whole entry): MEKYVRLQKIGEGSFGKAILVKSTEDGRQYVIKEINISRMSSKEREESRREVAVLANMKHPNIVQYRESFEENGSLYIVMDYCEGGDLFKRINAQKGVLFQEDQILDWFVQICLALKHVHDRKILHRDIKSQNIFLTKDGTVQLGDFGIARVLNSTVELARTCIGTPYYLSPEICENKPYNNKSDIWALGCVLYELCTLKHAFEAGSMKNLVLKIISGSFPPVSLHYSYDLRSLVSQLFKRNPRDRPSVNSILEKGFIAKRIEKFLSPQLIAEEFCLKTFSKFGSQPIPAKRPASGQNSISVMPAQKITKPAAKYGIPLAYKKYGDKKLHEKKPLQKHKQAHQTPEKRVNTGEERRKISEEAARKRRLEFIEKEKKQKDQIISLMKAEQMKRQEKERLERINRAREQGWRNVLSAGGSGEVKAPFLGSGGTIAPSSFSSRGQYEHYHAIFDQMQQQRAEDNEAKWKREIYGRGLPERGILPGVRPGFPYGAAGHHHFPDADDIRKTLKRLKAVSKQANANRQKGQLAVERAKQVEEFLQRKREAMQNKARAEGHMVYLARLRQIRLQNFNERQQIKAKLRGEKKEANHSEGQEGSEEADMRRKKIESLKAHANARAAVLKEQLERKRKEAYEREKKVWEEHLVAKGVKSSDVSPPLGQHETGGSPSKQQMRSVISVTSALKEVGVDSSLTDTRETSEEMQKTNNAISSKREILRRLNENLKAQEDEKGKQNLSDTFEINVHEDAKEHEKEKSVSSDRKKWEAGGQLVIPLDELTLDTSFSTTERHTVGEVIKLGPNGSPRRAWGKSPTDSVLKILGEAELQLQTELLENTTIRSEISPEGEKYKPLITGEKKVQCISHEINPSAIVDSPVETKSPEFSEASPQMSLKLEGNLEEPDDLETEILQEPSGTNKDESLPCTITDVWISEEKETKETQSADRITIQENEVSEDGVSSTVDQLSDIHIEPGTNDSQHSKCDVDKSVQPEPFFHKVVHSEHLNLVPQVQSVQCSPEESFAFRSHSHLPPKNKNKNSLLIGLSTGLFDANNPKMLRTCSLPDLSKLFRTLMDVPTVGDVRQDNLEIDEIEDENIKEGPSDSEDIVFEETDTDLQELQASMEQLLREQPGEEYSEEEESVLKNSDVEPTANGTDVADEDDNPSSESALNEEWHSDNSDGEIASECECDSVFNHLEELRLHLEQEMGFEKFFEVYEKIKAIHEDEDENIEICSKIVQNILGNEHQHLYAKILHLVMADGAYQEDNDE
# Source text: as §1
# [8] = molecular target: CSNK1G2 (CK1 gamma 2) (Homo sapiens (Human), UniProt P78368); assay: SelectScreen Kinase Profiling: CSNK1G2; type: biochemical; conditions: 300-350 nM
# Source text: as §1
# [9] = molecular target: RET (Homo sapiens (Human), UniProt P07949); assay: SelectScreen Kinase Profiling: RET; type: biochemical; conditions: 300-350 nM
# Source text: as §1
# [10] = molecular target: Src (Homo sapiens (Human), UniProt P12931); assay: SelectScreen Kinase Profiling: SRC; type: biochemical; conditions: 300-350 nM
# [11] = molecular target: FGFR1 (Homo sapiens (Human), UniProt P11362); assay: SelectScreen Kinase Profiling: FGFR1; type: biochemical; conditions: 300-350 nM
# Source text: as §1
# [12] = molecular target: FRAP1 (mTOR) (Homo sapiens (Human), UniProt P42345); assay: SelectScreen Kinase Profiling: FRAP1; type: biochemical; conditions: 300-350 nM
# Source text: as §1
# [13] = molecular target: IKBKB (IKK beta) (Homo sapiens (Human), UniProt O14920); assay: SelectScreen Kinase Profiling: IKBKB; type: biochemical; conditions: 300-350 nM
# Sequence of IKBKB (IKK beta) (O14920 whole entry): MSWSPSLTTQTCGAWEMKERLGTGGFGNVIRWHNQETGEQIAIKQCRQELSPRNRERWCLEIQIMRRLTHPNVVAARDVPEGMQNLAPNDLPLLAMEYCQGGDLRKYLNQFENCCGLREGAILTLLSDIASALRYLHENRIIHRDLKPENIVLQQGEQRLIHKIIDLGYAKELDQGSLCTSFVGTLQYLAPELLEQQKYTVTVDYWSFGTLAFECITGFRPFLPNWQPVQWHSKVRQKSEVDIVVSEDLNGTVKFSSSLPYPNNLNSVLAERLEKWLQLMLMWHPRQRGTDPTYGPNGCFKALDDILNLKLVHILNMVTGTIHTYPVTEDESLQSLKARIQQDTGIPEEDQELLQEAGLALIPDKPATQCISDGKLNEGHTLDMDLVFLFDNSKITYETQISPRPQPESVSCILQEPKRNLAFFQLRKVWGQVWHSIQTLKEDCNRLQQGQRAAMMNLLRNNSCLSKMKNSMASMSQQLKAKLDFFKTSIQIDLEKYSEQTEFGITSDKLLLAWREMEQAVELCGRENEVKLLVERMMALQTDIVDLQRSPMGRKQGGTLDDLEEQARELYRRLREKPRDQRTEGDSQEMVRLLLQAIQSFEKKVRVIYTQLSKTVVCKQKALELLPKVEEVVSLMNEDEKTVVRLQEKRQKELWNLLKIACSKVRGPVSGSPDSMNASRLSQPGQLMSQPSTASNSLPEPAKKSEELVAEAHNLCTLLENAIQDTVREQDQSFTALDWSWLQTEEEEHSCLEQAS
# Source text: as §1
# [14] = test system: Src; conditions: quoted in column head, BMCL 2005 p1931; cited from earlier work
# [15] = molecular target: ABL1 (Homo sapiens (Human), UniProt P00519); assay: SelectScreen Kinase Profiling: ABL1; type: biochemical; conditions: 300-350 nM
# Source text: as §1
# [16] = molecular target: GSK3B (GSK3 beta) (Homo sapiens (Human), UniProt P49841); assay: SelectScreen Kinase Profiling: GSK3B; type: biochemical; conditions: 300-350 nM
# Source text: as §1
# [17] = molecular target: ROCK1 (Homo sapiens (Human), UniProt Q13464); assay: SelectScreen Kinase Profiling: ROCK1; type: biochemical; conditions: 300-350 nM
# Source text: as §1
# [18] = molecular target: AURKA (Aurora A) (Homo sapiens (Human), UniProt O14965); assay: SelectScreen Kinase Profiling: AURKA; type: biochemical; conditions: 300-350 nM
# Sequence of AURKA (Aurora A) (O14965 whole entry): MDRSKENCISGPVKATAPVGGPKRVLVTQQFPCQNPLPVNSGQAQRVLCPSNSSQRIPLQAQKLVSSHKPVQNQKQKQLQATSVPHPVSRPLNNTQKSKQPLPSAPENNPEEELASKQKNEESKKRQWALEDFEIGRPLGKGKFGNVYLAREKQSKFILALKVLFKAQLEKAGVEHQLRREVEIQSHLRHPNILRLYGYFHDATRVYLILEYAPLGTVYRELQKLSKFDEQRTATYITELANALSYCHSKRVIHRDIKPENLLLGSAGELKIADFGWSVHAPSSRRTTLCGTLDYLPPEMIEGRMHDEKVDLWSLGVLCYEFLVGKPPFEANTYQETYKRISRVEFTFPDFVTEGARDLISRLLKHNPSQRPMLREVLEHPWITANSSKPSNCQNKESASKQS
# Source text: as §1
# [19] = molecular target: TEK (Tie2) (Homo sapiens (Human), UniProt Q02763); assay: SelectScreen Kinase Profiling: TEK; type: biochemical; conditions: 300-350 nM
# Source text: as §1
# [20] = molecular target: MARK2 (Homo sapiens (Human), UniProt Q7KZI7); assay: SelectScreen Kinase Profiling: MARK2; type: biochemical; conditions: 300-350 nM
# Source text: as §1
# [21] = molecular target: PHKG2 (Homo sapiens (Human), UniProt P15735); assay: SelectScreen Kinase Profiling: PHKG2; type: biochemical; conditions: 300-350 nM
# Source text: as §1
# [22] = molecular target: PRKCB1 (PKC beta I) (Homo sapiens (Human), UniProt P05771); assay: SelectScreen Kinase Profiling: PRKCB1; type: biochemical; conditions: 300-350 nM
# Source text: as §1
# [23] = molecular target: FLT3 (Homo sapiens (Human), UniProt P36888); assay: SelectScreen Kinase Profiling: FLT3; type: biochemical; conditions: 300-350 nM
# Source text: as §1
# [24] = molecular target: MAP2K1 (MEK1) (Homo sapiens (Human), UniProt Q02750); assay: SelectScreen Kinase Profiling: MAP2K1; type: biochemical; conditions: 300-350 nM
# Source text: as §1
# [25] = molecular target: PIM1 (Homo sapiens (Human), UniProt P11309); assay: SelectScreen Kinase Profiling: PIM1; type: biochemical; conditions: 300-350 nM
# Source text: as §1
# [26] = molecular target: ERBB2 (HER2) (Homo sapiens (Human), UniProt P04626); assay: SelectScreen Kinase Profiling: ERBB2; type: biochemical; conditions: 300-350 nM
# Sequence of ERBB2 (HER2) (P04626 23-1255): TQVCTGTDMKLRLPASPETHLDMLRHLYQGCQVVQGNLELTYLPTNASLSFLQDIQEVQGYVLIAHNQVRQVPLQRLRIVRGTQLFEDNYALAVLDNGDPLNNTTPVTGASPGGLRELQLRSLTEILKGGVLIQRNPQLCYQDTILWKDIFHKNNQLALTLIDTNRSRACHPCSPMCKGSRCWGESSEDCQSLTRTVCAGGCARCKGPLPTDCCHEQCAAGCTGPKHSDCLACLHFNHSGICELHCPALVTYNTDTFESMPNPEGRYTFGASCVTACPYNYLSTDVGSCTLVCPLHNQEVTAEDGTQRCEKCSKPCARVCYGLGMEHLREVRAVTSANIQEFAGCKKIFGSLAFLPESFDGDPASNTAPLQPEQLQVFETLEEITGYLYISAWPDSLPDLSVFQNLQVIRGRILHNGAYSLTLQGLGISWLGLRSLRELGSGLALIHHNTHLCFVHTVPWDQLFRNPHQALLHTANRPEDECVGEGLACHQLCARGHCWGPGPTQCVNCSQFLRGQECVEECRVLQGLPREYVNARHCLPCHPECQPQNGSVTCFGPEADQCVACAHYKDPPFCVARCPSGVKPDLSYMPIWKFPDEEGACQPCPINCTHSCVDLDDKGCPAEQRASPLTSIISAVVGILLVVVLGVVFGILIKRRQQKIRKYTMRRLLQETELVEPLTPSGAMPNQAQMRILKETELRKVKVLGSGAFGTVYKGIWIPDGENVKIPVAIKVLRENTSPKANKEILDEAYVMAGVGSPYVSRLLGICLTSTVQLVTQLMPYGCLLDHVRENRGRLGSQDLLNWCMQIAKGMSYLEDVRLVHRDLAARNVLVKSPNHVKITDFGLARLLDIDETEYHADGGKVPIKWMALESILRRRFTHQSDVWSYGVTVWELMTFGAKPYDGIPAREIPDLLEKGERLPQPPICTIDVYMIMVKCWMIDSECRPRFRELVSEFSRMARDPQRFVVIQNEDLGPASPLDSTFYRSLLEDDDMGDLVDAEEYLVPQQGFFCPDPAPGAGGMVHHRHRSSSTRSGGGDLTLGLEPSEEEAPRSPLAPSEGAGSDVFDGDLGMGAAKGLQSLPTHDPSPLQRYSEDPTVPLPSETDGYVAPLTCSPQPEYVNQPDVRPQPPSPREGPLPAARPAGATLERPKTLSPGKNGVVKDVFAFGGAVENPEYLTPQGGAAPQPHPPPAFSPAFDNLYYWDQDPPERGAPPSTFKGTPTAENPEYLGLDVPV
# Source text: as §1
# [27] = molecular target: INSR (Homo sapiens (Human), UniProt P06213); assay: SelectScreen Kinase Profiling: INSR; type: biochemical; conditions: 300-350 nM
# Source text: as §1
# [28] = molecular target: NTRK1 (TRKA) (Homo sapiens (Human), UniProt P04629); assay: SelectScreen Kinase Profiling: NTRK1; type: biochemical; conditions: 300-350 nM
# Source text: as §1
# [29] = molecular target: MAP4K4 (HGK) (Homo sapiens (Human), UniProt O95819); assay: SelectScreen Kinase Profiling: MAP4K4; type: biochemical; conditions: 300-350 nM
# Source text: as §1
# [30] = molecular target: PLK1 (Homo sapiens (Human), UniProt P53350); assay: SelectScreen Kinase Profiling: PLK1; type: biochemical; conditions: 300-350 nM
# Source text: as §1
# [31] = molecular target: PAK4 (Homo sapiens (Human), UniProt O96013); assay: SelectScreen Kinase Profiling: PAK4; type: biochemical; conditions: 300-350 nM
# Source text: as §1
# [32] = molecular target: LCK (Homo sapiens (Human), UniProt P06239); assay: SelectScreen Kinase Profiling: LCK; type: biochemical; conditions: 300-350 nM
# Source text: as §1
# [33] = molecular target: SYK (Homo sapiens (Human), UniProt P43405); assay: SelectScreen Kinase Profiling: SYK; type: biochemical; conditions: 300-350 nM
# Source text: as §1
# [34] = molecular target: BTK (Homo sapiens (Human), UniProt Q06187); assay: SelectScreen Kinase Profiling: BTK; type: biochemical; conditions: 300-350 nM
# Source text: as §1
# [35] = molecular target: IGF1R (Homo sapiens (Human), UniProt P08069); assay: SelectScreen Kinase Profiling: IGF1R; type: biochemical; conditions: 300-350 nM
# Source text: as §1
# [36] = molecular target: ACVR1B (ALK4) (Homo sapiens (Human), UniProt P36896); assay: SelectScreen Kinase Profiling: ACVR1B; type: biochemical; conditions: 300-350 nM
# Source text: as §1
# [37] = molecular target: AKT1 (PKB alpha) (Homo sapiens (Human), UniProt P31749); assay: SelectScreen Kinase Profiling: AKT1; type: biochemical; conditions: 300-350 nM
# Source text: as §1
# [38] = molecular target: MAPK8 (JNK1) (Homo sapiens (Human), UniProt P45983); assay: SelectScreen Kinase Profiling: MAPK8; type: biochemical; conditions: 300-350 nM
# Source text: as §1
# [39] = molecular target: PRKACA (PKA) (Homo sapiens (Human), UniProt P17612); assay: SelectScreen Kinase Profiling: PRKACA; type: biochemical; conditions: 300-350 nM
# Source text: as §1
# [40] = molecular target: DYRK3 (Homo sapiens (Human), UniProt O43781); assay: SelectScreen Kinase Profiling: DYRK3; type: biochemical; conditions: 300-350 nM
# Sequence of DYRK3 (O43781 whole entry): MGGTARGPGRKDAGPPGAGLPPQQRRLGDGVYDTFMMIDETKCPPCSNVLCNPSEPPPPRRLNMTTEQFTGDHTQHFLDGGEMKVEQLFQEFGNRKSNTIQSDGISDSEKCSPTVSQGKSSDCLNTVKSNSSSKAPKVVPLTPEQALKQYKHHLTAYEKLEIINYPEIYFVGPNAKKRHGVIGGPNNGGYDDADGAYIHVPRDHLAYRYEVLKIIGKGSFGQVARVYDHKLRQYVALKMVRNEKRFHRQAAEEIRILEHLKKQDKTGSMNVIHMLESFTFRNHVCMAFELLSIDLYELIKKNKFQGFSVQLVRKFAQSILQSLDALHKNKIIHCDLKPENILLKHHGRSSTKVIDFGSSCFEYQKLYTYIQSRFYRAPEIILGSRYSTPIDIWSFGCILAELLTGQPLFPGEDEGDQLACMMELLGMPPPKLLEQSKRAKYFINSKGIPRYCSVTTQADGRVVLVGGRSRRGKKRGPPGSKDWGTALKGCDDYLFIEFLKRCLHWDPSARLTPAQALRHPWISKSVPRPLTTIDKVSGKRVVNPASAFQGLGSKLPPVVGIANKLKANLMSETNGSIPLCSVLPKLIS
# Source text: as §1
# [41] = molecular target: EPHA2 (Homo sapiens (Human), UniProt P29317); assay: SelectScreen Kinase Profiling: EPHA2; type: biochemical; conditions: 300-350 nM
# Source text: as §1
# [42] = molecular target: CSNK2A1 (CK2 alpha 1) (Homo sapiens (Human), UniProt P68400); assay: SelectScreen Kinase Profiling: CSNK2A1; type: biochemical; conditions: 300-350 nM
# Sequence of CSNK2A1 (CK2 alpha 1) (P68400 whole entry): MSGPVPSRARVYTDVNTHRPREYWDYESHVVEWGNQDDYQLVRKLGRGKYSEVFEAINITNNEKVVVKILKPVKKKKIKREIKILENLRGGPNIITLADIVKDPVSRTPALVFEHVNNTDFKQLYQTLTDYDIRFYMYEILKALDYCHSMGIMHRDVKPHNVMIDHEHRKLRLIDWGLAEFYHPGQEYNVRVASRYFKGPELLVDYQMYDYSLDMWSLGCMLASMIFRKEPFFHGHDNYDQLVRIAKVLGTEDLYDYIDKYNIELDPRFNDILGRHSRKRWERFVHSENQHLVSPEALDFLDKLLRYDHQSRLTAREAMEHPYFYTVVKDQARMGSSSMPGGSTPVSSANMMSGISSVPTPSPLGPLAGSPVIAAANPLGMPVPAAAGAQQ
# Source text: as §1
# [43] = molecular target: MAPK14 (p38 alpha) (Homo sapiens (Human), UniProt Q16539); assay: SelectScreen Kinase Profiling: MAPK14; type: biochemical; conditions: 300-350 nM
# Source text: as §1
# [44] = molecular target: IRAK4 (Homo sapiens (Human), UniProt Q9NWZ3); assay: SelectScreen Kinase Profiling: IRAK4; type: biochemical; conditions: 300-350 nM
# Source text: as §1
# [45] = molecular target: RPS6KB1 (p70S6K) (Homo sapiens (Human), UniProt P23443); assay: SelectScreen Kinase Profiling: RPS6KB1; type: biochemical; conditions: 300-350 nM
# Source text: as §1
# [46] = molecular target: MET (cMet) (Homo sapiens (Human), UniProt P08581); assay: SelectScreen Kinase Profiling: MET; type: biochemical; conditions: 300-350 nM
# Source text: as §1
compound,measurement,setting,value
"CCN(CC)CCOc1ccc(Nc2ncc3cc(-c4c(Cl)cccc4Cl)c(=O)n(C)c3n2)cc1 [Compound 1 BMCL, 2005, p1931, reference compound]",Inhibition MAPKAPK2,[1],− (Inhibition <75% @ 300-350 nM)
same,Inhibition CHEK1 (CHK1),[2],− (Inhibition <75% @ 300-350 nM)
same,Inhibition MAPK1 (ERK2),[3],− (Inhibition <75% @ 300-350 nM)
same,Inhibition KIT,[4],+ (Inhibition >75% at 300-350 nM)
same,Inhibition JAK3,[5],+ (Inhibition >75% at 300-350 nM)
same,Inhibition KDR (VEGFR2),[6],+ (Inhibition >75% at 300-350 nM)
same,Inhibition NEK1,[7],− (Inhibition <75% @ 300-350 nM)
same,Inhibition CSNK1G2 (CK1 gamma 2),[8],− (Inhibition <75% @ 300-350 nM)
same,Inhibition RET,[9],+ (Inhibition >75% at 300-350 nM)
same,Inhibition SRC,[10],+ (Inhibition >75% at 300-350 nM)
same,Inhibition FGFR1,[11],+ (Inhibition >75% at 300-350 nM)
same,Inhibition FRAP1 (mTOR),[12],− (Inhibition <75% @ 300-350 nM)
same,Inhibition IKBKB (IKK beta),[13],− (Inhibition <75% @ 300-350 nM)
same,IC50,[14],6 nM
same,Inhibition ABL1,[15],+ (Inhibition >75% at 300-350 nM)
same,Inhibition GSK3B (GSK3 beta),[16],− (Inhibition <75% @ 300-350 nM)
same,Inhibition ROCK1,[17],− (Inhibition <75% @ 300-350 nM)
same,Inhibition AURKA (Aurora A),[18],− (Inhibition <75% @ 300-350 nM)
same,Inhibition TEK (Tie2),[19],− (Inhibition <75% @ 300-350 nM)
same,Inhibition MARK2,[20],+ (Inhibition >75% at 300-350 nM)
same,Inhibition PHKG2,[21],− (Inhibition <75% @ 300-350 nM)
same,Inhibition PRKCB1 (PKC beta I),[22],− (Inhibition <75% @ 300-350 nM)
same,Inhibition FLT3,[23],+ (Inhibition >75% at 300-350 nM)
same,Inhibition MAP2K1 (MEK1),[24],− (Inhibition <75% @ 300-350 nM)
same,Inhibition PIM1,[25],− (Inhibition <75% @ 300-350 nM)
same,Inhibition ERBB2 (HER2),[26],− (Inhibition <75% @ 300-350 nM)
same,Inhibition INSR,[27],− (Inhibition <75% @ 300-350 nM)
same,Inhibition NTRK1 (TRKA),[28],− (Inhibition <75% @ 300-350 nM)
same,Inhibition MAP4K4 (HGK),[29],+ (Inhibition >75% at 300-350 nM)
same,Inhibition PLK1,[30],− (Inhibition <75% @ 300-350 nM)
same,Inhibition PAK4,[31],− (Inhibition <75% @ 300-350 nM)
same,Inhibition LCK,[32],+ (Inhibition >75% at 300-350 nM)
same,Inhibition SYK,[33],− (Inhibition <75% @ 300-350 nM)
same,Inhibition BTK,[34],+ (Inhibition >75% at 300-350 nM)
same,Inhibition IGF1R,[35],− (Inhibition <75% @ 300-350 nM)
same,Inhibition ACVR1B (ALK4),[36],+ (Inhibition >75% at 300-350 nM)
same,Inhibition AKT1 (PKB alpha),[37],− (Inhibition <75% @ 300-350 nM)
same,Inhibition MAPK8 (JNK1),[38],− (Inhibition <75% @ 300-350 nM)
same,Inhibition PRKACA (PKA),[39],− (Inhibition <75% @ 300-350 nM)
same,Inhibition DYRK3,[40],− (Inhibition <75% @ 300-350 nM)
same,Inhibition EPHA2,[41],+ (Inhibition >75% at 300-350 nM)
same,Inhibition CSNK2A1 (CK2 alpha 1),[42],− (Inhibition <75% @ 300-350 nM)
same,Inhibition MAPK14 (p38 alpha),[43],+ (Inhibition >75% at 300-350 nM)
same,Inhibition IRAK4,[44],− (Inhibition <75% @ 300-350 nM)
same,Inhibition RPS6KB1 (p70S6K),[45],− (Inhibition <75% @ 300-350 nM)
same,Inhibition MET (cMet),[46],− (Inhibition <75% @ 300-350 nM)
